According to article PMC5130624 (International journal for parasitology, 2016):
Like-named read-outs stand apart in the source and are kept apart here.

Experiments:
recombinant SnCDPK1 [1] = test: SnCDPK1 kinase activity assay; format: biochemical, Sarcocystis neurona; details: read-out: SnCDPK1 enzyme IC50; inhibition of phosphorylation activity
hERG = details: cited from earlier work
[2] = bovine, in vivo
recombinant TgCDPK1 = biological target: T1, recombinant TgCDPK1 (Toxoplasma gondii, UniProt Q9BJF5); test: Recombinant TgCDPK1 thermal shift assay; format: binding; details: 20 µM BKI, 5% DMSO; change in Tm vs DMSO control
T1 sequence (Q9BJF5 1-507): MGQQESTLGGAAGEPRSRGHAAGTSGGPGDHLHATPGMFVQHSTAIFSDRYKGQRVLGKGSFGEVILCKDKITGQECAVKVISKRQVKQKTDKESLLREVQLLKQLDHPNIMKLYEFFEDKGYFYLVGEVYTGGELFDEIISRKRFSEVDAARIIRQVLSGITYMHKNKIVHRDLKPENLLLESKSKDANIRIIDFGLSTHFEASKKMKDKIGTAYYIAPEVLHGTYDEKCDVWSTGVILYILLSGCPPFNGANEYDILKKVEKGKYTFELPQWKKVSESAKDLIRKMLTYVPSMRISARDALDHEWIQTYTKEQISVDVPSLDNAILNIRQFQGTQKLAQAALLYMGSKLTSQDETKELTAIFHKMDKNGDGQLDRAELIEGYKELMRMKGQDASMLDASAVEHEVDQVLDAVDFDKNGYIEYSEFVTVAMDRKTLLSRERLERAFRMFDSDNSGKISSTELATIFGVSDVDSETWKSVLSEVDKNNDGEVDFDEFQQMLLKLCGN

[3] = system: SnCDPK1 in S. neurona cell lysate; test: Cell lysate thermal shift assay; format: binding, Sarcocystis neurona; details: BKI 2 µM, 0.5% DMSO, Tm (compound)-Tm (DMSO)
recombinant SnCDPK1 [4] = test: Recombinant SnCDPK1 thermal shift assay; format: binding, Sarcocystis neurona; details: 20 µM BKI, 5% DMSO; change in Tm vs DMSO control
[5] = Oral pharmacokinetics in newborn calves; details: unpublished data
[6] = system: S. neurona strain F9F merozoites; test: S. neurona parasite growth assay in bovine turbinate cells; format: cell-based, Sarcocystis neurona
TgCDPK1 = details: read-out: TgCDPK1 enzyme IC50; ref Johnson et al., 2012; cited from earlier work

Compound | IC50 (recombinant SnCDPK1 [1]) | hERG inhibition (hERG; ref Vidadala et al., 2016) | Oral pharmacokinetics [2] | Recombinant TgCDPK1 Thermal Shift (°C) at 20 µM (recombinant TgCDPK1) | S. neurona cell CDPK1 Thermal Stability (°C) [3] | Recombinant SnCDPK1 Thermal Shift (°C) at 20 µM (recombinant SnCDPK1 [4]) | Oral pharmacokinetics [5] | hERG inhibition (hERG; ref Ojo et al., 2014a) | EC50 ([6]; Sarcocystis neurona, in Bos taurus, 96 h, read-out: S. neurona cell growth EC50) | Effect of time of addition on growth inhibition ([6]; added at parasite inoculation (0 h) versus 2 h p.i., 4 days) | IC50 (TgCDPK1)
CCOc1ccc2cc(-c3nn(C(C)(C)C)c(N)c3C(N)=O)cnc2c1 [compound 1517] | < 10 nM | lack of hERG inhibition | outstanding oral pharmacokinetics | 10.5 °C | 8.0 °C | 9.6 °C | – | – | – | – | –
CCOc1ccc2cc(-c3nn(CC4CCN(C)CC4)c4ncnc(N)c34)ccc2c1 [compound 1294] | < 10 nM | – | – | – | 2.7 °C | – | outstanding oral pharmacokinetics | has recently been shown to have hERG inhibition | 68 nM | more effective if added at the time of infection rather than 2 h later | […]
